Assay results from ChEMBL document CHEMBL2380234, “Natural sesquiterpene lactones as inhibitors of Myb-dependent gene expression: structure-activity relationships” (Eur J Med Chem, 2013).

Test: Cytotoxicity against chicken HD11 cells assessed as cell viability after 24 hrs by MTS assay
Type: ADME, cell-based
Conditions: Gallus gallus, HD11, 24 h

Row | SMILES | IC50 [µM]
1 | C=C1C(=O)O[C@H]2C[C@H](C)[C@@H]3CC[C@@]4(C)O[C@@]34C[C@H]12 | > 30
2 | C=C1C[C@H](O)C[C@]2(C)C[C@H]3OC(=O)[C@@H](C)[C@H]3C[C@@H]12 | > 30
3 | C=C1C(=O)O[C@@H]2/C=C(\C)CC[C@H]3O[C@]3(COC(C)=O)C[C@@H](OC(=O)C3(C)OC3C)[C@@H]12 (stereo partly drawn) | 25.5
4 | C=C1C(=O)O[C@@H]2/C=C(/C)[C@@H](OC(C)=O)C[C@H]3O[C@]3(O)C[C@@H](OC(=O)/C(C)=C\C)[C@@H]12 | > 30
5 | C=C1C(=O)O[C@@H]2/C=C(/CO)C[C@H](O)/C=C(/C(=O)OC)[C@@H](OC(C)=O)[C@@H](OC(=O)C(C)C)[C@@H]12 | 24.8
6 | C=C1C(=O)O[C@H]2[C@H]1[C@H](OC(=O)[C@]1(C)O[C@@H]1C)[C@@H](OC(C)=O)/C(C(=O)OC)=C\C=C/[C@@]1(C)O[C@H]21 | 28
7 | C=C1C(=O)O[C@@H]2/C=C(\C)CC/C=C(/C(=O)OC)[C@H](OC(C)=O)[C@@H](OC(=O)C(C)(O)C(C)O)[C@@H]12 (stereo partly drawn) | > 30
8 | C=C1C[C@H]2OC(=O)C(=C)[C@@H]2[C@H](OC(=O)C(C)C)C[C@@]2(C)OC1=CC2=O | 25.2
9 | C=C(C)C(=O)O[C@@H]1C[C@@]2(C)OC(=CC2=O)C(=C)C[C@H]2OC(=O)C(=C)[C@H]12 | 10.4
10 | C=C1C[C@H]2OC(=O)C(=C)[C@@H]2[C@H](OC(=O)/C(C)=C/C)C[C@@]2(C)OC1=CC2=O | 12.1
11 | C=C1C(=O)O[C@@H]2C[C@H](C)C(/C=C/C(C)=O)=CC[C@H]12 | > 30
12 | C=C1C(=O)O[C@@H]2C[C@H](C)[C@]3(/C=C/C(C)=O)O[C@@H]3C[C@H]12 | > 30
13 | C=C1C(=O)O[C@@H]2C[C@H](C)[C@@]3(O)C=C(C(C)=O)[C@@]4(O[C@@H]3C[C@H]12)C(=O)O[C@H]1C[C@@H](C)C(/C=C/C(C)=O)=CC[C@H]14 | > 30
14 | C=C1C(=O)O[C@@H]2C[C@H](C)[C@@]3(O)C=C(C(C)=O)[C@@]4(O[C@@H]3C[C@H]12)C(=O)O[C@H]1C[C@@H](C)[C@]2(/C=C/C(C)=O)O[C@@H]2C[C@H]14 | > 30
15 | C=C1C(=O)O[C@@H]2[C@H]3O[C@]3(C)CC/C=C(\C)[C@@H](OC(=O)CC3(C)OC3C)C[C@@H]12 (stereo partly drawn) | 22.2
16 | C=C1C(=O)O[C@H]2[C@H]1[C@H](OC(C)=O)C/C(C)=C/CC[C@@]1(C)O[C@@H]21 | > 30
17 | C=C1C(=O)O[C@@H]2/C=C(\C)CC[C@H]3O[C@]3(CO)C[C@@H](OC(=O)C3(C)OC3C)[C@@H]12 (stereo partly drawn) | > 30
18 | C=C1C(=O)O[C@@H]2C[C@@H](C)[C@@H]3[C@@H](OC(C)=O)C[C@@H](OC(C)=O)[C@@]3(C)[C@@H](OC(C)=O)[C@H]12 | > 30
19 | C=C1C(=O)O[C@@H]2C[C@@H](C)[C@@H]3[C@@H](OC(C)=O)C[C@@H](OC(C)=O)[C@@]3(C)C[C@H]12 | > 30
20 | C=C1C(=O)O[C@@H]2C[C@@H](C)[C@@H]3[C@@H](OC(C)=O)C[C@@H](O)[C@@]3(OC(C)=O)C[C@H]12 | > 30

Row | SMILES | IC50 [µM]
21 | C=C1C(=O)O[C@@H]2C[C@@H](C)[C@@H]3CCC(=O)[C@@]3(C)C[C@H]12 | > 30
22 | C=C1C(=O)O[C@@H]2C[C@@H](C)[C@@H]3[C@@H](OC(C)=O)C[C@@H](O)[C@@]3(C)C[C@H]12 | > 30
23 | CC(=O)O[C@H]1[C@@H]2[C@H](C)C(=O)O[C@@H]2C[C@@H](C)[C@@H]2C=CC(=O)[C@]21C | 21
24 | C=C1C(=O)O[C@@H]2C3O[C@]3(C)CC/C=C(\C)CC[C@@H]12 (stereo partly drawn) | > 30
25 | CC(C)CC(=O)O[C@H]1[C@@H]2[C@H](C)C(=O)O[C@@H]2C[C@@H](C)[C@@H]2C=CC(=O)[C@]21C | > 30
26 | C=C1C(=O)O[C@@H]2C[C@@H](C)[C@@H]3[C@@H](O)C[C@@H](OC(=O)/C(C)=C/C)[C@@]3(C)[C@@H](O)[C@H]12 | > 30
27 | C=C1C(=O)O[C@@H]2[C@H]3O[C@]3(C)CC/C=C(\C)[C@@H](OC(=O)C(C)C(C)O)C[C@@H]12 (stereo partly drawn) | > 30
28 | C=C1C(=O)O[C@@H]2[C@H]3O[C@]3(C)CC/C=C(\C)[C@@H](OC(=O)CC(C)(C)O)C[C@@H]12 | > 30
29 | C=C1C(=O)O[C@@H]2C[C@@H](C)[C@@H]3[C@@H](O)C[C@@H](O)[C@@]3(C)C[C@H]12 | > 30
30 | C=C1C(=O)O[C@@H]2C[C@@]3(C)CC(=O)C[C@H](C)C3=C[C@H]12 [2-OXOALANTOLACTONE] | > 30
31 | C/C1=C\CC[C@@]2(C)O[C@@H]2[C@H]2OC(=O)[C@@H](C)[C@@H]2CC1 [11BETA,13-DIHYDRO-PARTHENOLIDE] | > 30
32 | C=C1C(=O)O[C@@H]2C[C@@H](C)[C@@H]3C=CC(=O)[C@@]3(C)[C@@H](OC(C)=O)[C@H]12 [ANGUSTIBALIN] | 7.34
33 | C=C1C(=O)O[C@@H]2[C@H]3C(C)=CC[C@@]34O[C@@]4(C)CC[C@@H]12 [ARGLABIN] | > 30
34 | C=C1C(=O)O[C@@H]2C[C@@H](C)C(=O)C/C=C(\C)CC[C@@H]12 [ARGOLIDE] | > 30
35 | C=C1C(=O)O[C@@H]2C[C@@H](C)[C@@H]3[C@@H](O)CC(=O)[C@@]3(C)[C@@H](OC(=O)/C(C)=C/C)[C@H]12 [ARNIFOLIN] | > 30
36 | C=C1C(=O)O[C@@H]2/C=C(/CO)C3=CC(=O)[C@@](C)(C[C@@H](OC(=O)/C(C)=C/C)[C@@H]12)O3 [BUDLEIN A] | 9
37 | C=C1C(=O)O[C@@H]2C[C@]3(C)[C@@H](CCC(C)=O)[C@]3(C)C[C@H]12 [CARABRONE] | > 30
38 | C=C1C(=O)O[C@@H]2C[C@@H](C)[C@@H]3[C@@H](OC(C)=O)C[C@@H](O)[C@@]3(C)[C@@H](O)[C@H]12 [CHAMISSONOLIDE] | > 30
39 | C=C1C(=O)O[C@@H]2/C=C(\CO)CC/C=C(\C)C[C@H](OC(=O)C(=C)[C@H](O)CO)[C@@H]12 [CNICIN] | > 30
40 | C=C1C(=O)O[C@@H]2/C=C(\C)CC/C=C(\C)CC[C@@H]12 [COSTUNOLIDE] | > 30

Row | SMILES | IC50 [µM]
41 | C=C1CC[C@H]2C(=C)CC[C@H]3C(=C)C(=O)O[C@@H]3[C@@H]12 [DEHYDROCOSTUSLACTONE] | > 30
42 | C=C1C(=O)O[C@@H]2[C@H]3C(C)=CC[C@H](O)[C@]3(C)CC[C@@H]12 [DOUGLANIN] | > 30
43 | C=C1C(=O)O[C@H]2[C@H]1[C@H](OC(=O)[C@@]1(C)O[C@H]1C)[C@@H](OC(C)=O)/C(C(=O)OC)=C\CC[C@@]1(C)O[C@H]21 [ENHYDRIN] | 7.49
44 | C=C1C(=O)O[C@@H]2/C=C(/C)[C@@H](O)C[C@H]3O[C@]3(C)C[C@@H](OC(=O)/C(C)=C\C)[C@@H]12 [EPOXYNOBILIN] | > 30
45 | C=C(C)C(=O)O[C@H]1C[C@@]2(C)OC(=CC2=O)/C(CO)=C\[C@H]2OC(=O)C(=C)[C@H]12 [GOIAZENSOLIDE] | 10.1
46 | C=C1C(=O)O[C@@H]2C[C@@H](C)[C@@H]3C=CC(=O)[C@@]3(C)[C@@H](OC(=O)C(C)C)[C@H]12 [HELENALINISOBUTYRATE] | > 30
47 | C=C1C(=O)O[C@@H]2C[C@@H](C)[C@@H]3C=CC(=O)[C@@]3(C)[C@@H](O)[C@H]12 [HELENALIN] | 21.1
48 | C=C1C(=O)O[C@@H]2C[C@@]3(C)CCC[C@H](C)C3=C[C@H]12 [HELENINE] | > 30
49 | C=C1C(=O)O[C@@H]2C[C@@]3(C)CCCC(=C)[C@@H]3C[C@H]12 [ISOALANTOLACTONE] | > 30
50 | C=C1C(=O)O[C@@H]2C[C@@]3(C)C[C@@H](O)CC(=C)[C@@H]3C[C@H]12 [IVALIN] | > 30
51 | C=C1C(=O)O[C@H]2C[C@@H](C)[C@@H]3C=CC(=O)[C@@]3(C)[C@H](O)[C@H]12 [MEXICANIN I] | 21.1
52 | C=C1C(=O)O[C@@H]2/C=C(/C)[C@@H](O)C/C=C(\C)C[C@H](OC(=O)/C(C)=C\C)[C@@H]12 [NOBILIN] | > 30
53 | C=C(CO)C(=O)O[C@H]1C/C(C)=C\CC/C(CO)=C\[C@H]2OC(=O)C(=C)[C@H]12 [ONOPORDOPICRIN] | > 30
54 | C=C1C(=O)O[C@@H]2C[C@H](C)[C@]3(O)CCC(=O)[C@@]3(C)C[C@H]12 [PERUVIN] | > 30
55 | C=C1C(=O)O[C@@H]2[C@H]1CC[C@H](C)[C@]1(CCC(=O)O1)[C@@]2(C)O [PSILOSTACHYIN A] | > 30
56 | C=C1C(=O)O[C@@H]2/C=C(/C)[C@@H](O)C[C@H]3O[C@]3(COC(C)=O)C[C@@H](OC(=O)/C(C)=C\C)[C@@H]12 [ROTUNDIN] | > 30
57 | C=C1C(=O)O[C@@H]2/C=C(/C)C(=O)/C=C/[C@](C)(O)C[C@@H](OC(=O)C(C)C)[C@@H]12 [TAGITININ C] | 30.9
58 | C=C1C(=O)O[C@@H]2/C=C(\C)CC/C=C(/C(=O)OC)[C@H](OC(C)=O)[C@@H](OC(=O)[C@]3(C)O[C@@H]3C)[C@@H]12 [UVEDALIN] | 11.4
